Source: the NIST ThermoML archive (doi:10.1016/j.tca.2017.09.003)
Numbers after ± are expanded uncertainties.

Details: Crystal; DTA

## Cc1oncc1C(=O)Nc1ccc(C(F)(F)F)cc1
  Normal melting temperature: 169.00 ± 2 °C
